Laboratory results published in a melting point compilation (Tetko et al.; mined from patent text by program, amines drawn as free bases though some values may be those of a salt).

| SMILES | melting point [°C] |
| --- | --- |
| N#Cc1c(Cl)c(Cl)n(CCl)c1-c1ccc(Cl)c(Cl)c1 | 153 to 156 |
| N=C(NC(=O)Nc1ccc([N+](=O)[O-])cc1)c1ccccc1 | 188 to 191 |
| COc1c(C)cc([N+](=O)[O-])cc1C(=S)N(C)C | 138 to 139 |
| COC(=O)CCn1c(=O)n2n(c1=O)C(C(=O)OC)C=CC2 (stereo not drawn) | 91 to 92 |
| Cc1ccc(Nc2ncccc2N)c(C)c1[N+](=O)[O-] | 173 to 175 |
| CC(=O)N(Cc1ccccc1)CC(CCN1CCC(O)(c2ccccc2)CC1)c1ccc(Cl)c(Cl)c1 (stereo not drawn) | 57 to 62 |
| CNC(=C[N+](=O)[O-])NCCSCc1ccsn1 | 118 to 120 |
| CC(C)(C)c1cc(Cc2cc(C(C)(C)C)cc(C(C)(C)C)c2O)c(O)c(C(C)(C)C)c1 | 141 to 142 |
| c1ccc(N2c3ccccc3CC2C2=NCCN2)cc1 (stereo not drawn) | 141 to 144 |
| CCOC(=O)C(Cc1c(Cl)cc(OC)cc1Cl)(NC(C)=O)C(=O)OCC | 154 to 156 |
| O=[N+]([O-])c1cc(C2=NOC(c3cc(C(F)(F)F)cc(C(F)(F)F)c3)(C(F)(F)F)C2)ccc1N1C=NNN1 (stereo not drawn) | 147 to 149 |
| c1ccc(-n2c3ccccc3c3c2ccc2c4ccccc4n(-c4ccccc4)c23)cc1 | 166 |
| COc1ccc2c(c1)n(C1CCCCC1)c(=O)n2S(=O)(=O)c1ccc([N+](=O)[O-])cc1 | 160 |
| C[C@H](NC(=O)OC(C)(C)C)[C@@H]1CCN(c2nc3c(cc2F)c(=O)[nH]c(=O)n3C2CC2)C1 | 249 to 251 |
| Fc1ccc(C(CN2CCOCC2)=C2SCCCS2)cc1 | 104 to 106 |
| O=C(C(=O)N(CCN1CCOCC1)S(=O)(=O)C(F)(F)F)N(CCN1CCOCC1)S(=O)(=O)C(F)(F)F | 62 to 64 |
| Cc1nc2sc(Cl)cn2c(=O)c1O | 214 to 217 |
| O=C1c2c(O)ccc(O)c2C(=O)c2c(NCCN(CCO)CCO)ccc(NCCN(CCO)CCO)c21 | 134 to 136 |
| CCNCC1CN(c2c(F)cc3c(=O)c(C(=O)O)cn(C4CC4)c3c2F)CCO1 (stereo not drawn) | 210 to 213 |
| NC[C@@H](O)[C@H](Cc1ccccc1)N(Cc1ccccc1)Cc1ccccc1 | 72 to 76 |
| COc1cc(N(C)C(=O)CN2CCN(C)CC2)ccc1N | 115 to 118 |
| COCc1nc(-c2cc(C(C)(C)C)c(O)c(C(C)(C)C)c2)cs1 | 116 to 117 |
| O=C(Nc1ccccc1)Nc1ccc(-c2ccc(C(=O)N3CCN4CCC3CC4)o2)cc1 | 125 to 130 |
| CC(C)(C)n1nc2nc3n(c(=O)c2c1N)CCS3 | 154 to 158 |
| CCCCCOc1ccc2c(c1)C=C(CN)CO2 | 126 |
| CCn1ncc2c1ncc1c(OCCCN(C)C)nc3cc(C)nn3c12 | 62 to 64 |
| N#Cc1c2ccccc2c(-c2ccc(O[C@H](Cc3ccccc3)C(=O)O)cc2)c2c1sc1ccccc12 | 145 to 148 |

| SMILES | melting point [°C] |
| --- | --- |
| FC(COC1CCC(Nc2ncnc3[nH]ncc23)CC1F)c1ccccc1 (stereo not drawn) | 204 to 205 |
| CCNC(=O)c1ccc(-n2nnc(C(=O)NC3CC3)c2CCCCCF)cc1 | 150 |
| N#CSc1nc(Cl)ncc1F | 103 to 104 |
| CC1(C)Cn2c(nc3c(N)nc4ccccc4c32)CN1S(C)(=O)=O | 227 to 228 |
| Cc1ccccc1S(=O)(=O)NC1CCc2sccc2C1 (stereo not drawn) | 130 to 132 |
| N#CC(c1ccccc1)(c1ccccc1)[C@H]1CCCN(CCc2ccccc2)C1 | 134 to 138 |
| N#CCCCCn1cnc(NC(=S)NCC(F)(F)F)n1 | 136 to 138 |
| CC(C)(C)c1cc(-c2nn(CCO)c3ncccc23)cc(C(C)(C)C)c1O | 135 to 137 |
| O=C1CCCN1S(=O)(=O)c1ccc(N2CCOCC2)cc1 | 120 to 122 |
| O=C(O)C1Cc2ccccc2N1C(=O)c1ccccc1 (stereo not drawn) | 209 to 210 |
| CC(C)(CCOc1ccc(Cl)cc1)C(=O)Cn1cncn1 | 188 to 190 |
| N#Cc1ccc(CC(NC(=O)OCc2ccccc2)C(=O)NCC(=O)NCCC(=O)OCc2ccccc2)cc1 (racemic) | 134 to 135 |
| N#Cc1ccc(Oc2nc(Nc3cccc(C(=O)O)c3)nc(Oc3ccccc3)n2)cc1 | 150 |
| CCC(O)c1cc2cc(OCC(=O)O)c(Cl)c(Cl)c2s1 (stereo not drawn) | 156 to 158 |
| Cc1ccc(C(=O)Nc2ccc3ccc(Cl)nc3n2)nn1 | 258 |
| CCN1c2cscc2CNc2ccccc21 | 85 to 87 |
| NC(=O)C1(c2ccc(Br)nc2)CCCC1 | 211 to 212 |
| CC(CCCC(O)(C(F)(F)F)C(F)(F)F)C1CCC2C3C=CC4=CC(=O)C5OC5C4(C)C3CCC12C (stereo not drawn) | 181 to 184 |
| CCOC(=O)[C@H](CCc1ccccc1)N(C(=O)OCC(Cl)(Cl)Cl)[C@@H](C)C(=O)O | 73 to 75 |
| COc1cc(OC)cc(N(C)S(=O)(=O)c2ccc(C)cc2)c1 | 110 to 111 |
| CCCCN1CC=C(c2cccc3c2CC(=O)N3)CC1 | 110 to 111 |
| O=C(Cc1ccc(O)cc1)OCCC(c1ccccc1)(c1ccccc1)c1ccccc1 | 136 to 138 |
| C=CCc1c(O)ccc2oc(C(=O)OCC)cc12 | 94 to 95 |
| NC(=O)c1ccn2c1CSC2 | 186 |
| CCS(=O)c1cnc(Cl)c(Cl)c1 (stereo not drawn) | 78 to 79 |
| CCNCC1CCN(c2c(F)cc3c(=O)c(C(=O)O)cn(C4CCC4)c3c2F)C1 (stereo not drawn) | 223 to 225 |
| COCC1(N2C(=O)NC(=O)C2=O)C=CC=C(OC2CC(F)CC2Cl)C1 (stereo not drawn) | 90 to 91 |

Next, values leading:

| melting point [°C] | SMILES |
| --- | --- |
| 245 to 246 | CN1Cc2c(Cc3ccc4c(c3)C(=O)NC4=O)ncn2-c2ccsc2C1=O |
| 188 | COCc1cc(Oc2ccc3c(C(=O)Nc4ccc(C)c(C(F)(F)F)c4)cccc3c2)ncn1 |
| 131 | CC1=C(C(=O)OCc2ccccc2)C(c2ccccc2C(F)(F)F)c2c(ccnc2OC(C)C)N1 (stereo not drawn) |
| 245 to 246 | Cc1cc(CCC(=O)O)nc(-c2nc(=O)c3ccccc3s2)c1 |
| 62 to 63 | CCCCOc1ccc(Oc2cc(=O)c3c(OCCCC)c(OC)c(OCCCC)cc3o2)cc1 |
| 75 to 77 | O=C(c1cc(C(F)(F)F)cc(C(F)(F)F)c1)N1CCN(C(=O)CN2CC3CC2CN3Cc2ccccc2)C(c2ccc(Cl)c(Cl)c2)C1 (racemic) |
| 150 | COc1ccc(C(O)(CC(=O)N2CCOCC2)c2ccc(Cl)cc2)cc1OC (stereo not drawn) |
| 153 to 155 | Cc1cccc(-c2nc(N)sc2-c2ccc(F)c(-c3cnn(C)c3)c2)n1 |
| 133 to 134 | O=C(N[C@@H]1CCCC[C@H]1O)c1cnc(OCC(F)(F)F)c(-c2ccc(F)cc2)n1 |
| 214 | CCOC(=O)C1=C(c2ccccc2)Nc2n[nH]cc2C1c1ccccc1Cl (stereo not drawn) |
| 174 to 178 | CC(=O)OCC1CCn2c(c(C3=C(c4cn(C)c5ccccc45)C(=O)OC3=O)c3ccccc32)C1 (stereo not drawn) |
| 162 to 163 | CC1CN(Cc2ccccc2)CC(NC(=O)c2n[nH]c3ccccc23)CN1C (stereo not drawn) |
| 202 to 203 | COC(=O)C(=Cc1c[nH]c2cc(Cl)ccc12)NC(C)=O |
| 148 to 149 | Cc1cc(OC(F)F)ccc1NC(=O)c1cccc([N+](=O)[O-])c1C(=O)NC(C)C |
| 183 to 184 | FC(F)(F)c1nnc2ccc(-c3ccccc3)nn12 |
| 212 to 216 | CC(=O)c1c(-c2ccc(O)c3ccccc23)oc2ccccc12 |
| 183 to 185 | CN1C(=O)C(C)(Cc2ccccc2)N(C)C(=O)C1C1NC(=O)c2cccc(F)c21 (stereo not drawn) |
| 208 to 209 | CS(=O)(=O)c1ccc(-n2nc(C(F)(F)F)cc2-c2nc3c(F)cccc3s2)cc1 |
| 187 to 189 | O=C1NC(=O)c2cc(Nc3ccc(OCc4ccccc4)cc3)c(Nc3ccc(OCc4ccccc4)cc3)cc21 |
| 115 to 116 | CC(=O)Oc1ccc(-c2ccc(C=C(Br)Br)s2)cc1 |
| 211 to 213 | O=C(c1[nH]c2ccccc2c1Sc1ccccn1)N1CCCC1 |
| 122 to 123 | CCOC(=O)c1nn(-c2ccc(Cl)cc2)c2c1CCC2 |

| melting point [°C] | SMILES |
| --- | --- |
| 123 to 126 | O=C(O)c1ccc(OC(F)(F)F)c(Cl)c1Cl |
| 177 to 178 | CCOC(=O)c1cn(C2COC2)c2cc(F)c(F)cc2c1=O |
| 132 to 133 | COc1ccc(C(=O)Nc2ccccc2C(=O)c2ccccn2)cc1 |
| 218 to 220 | CC(=O)NCCCc1c[nH]c(-c2ccc(F)cc2)c1-c1ccncc1 |
| 212 to 216 | NC(=O)C1Cc2c([nH]c3ccccc23)CN1 (stereo not drawn) |
| 295 to 297 | CC(=O)Cc1ccc2c(c1)-c1[nH]c3ccc(C(F)(F)F)cc3c1CC(=O)N2 |
| 110 to 111 | O=C(O)CCc1cnoc1-c1cccc(Cl)c1 |
| 157 to 158 | CC1(C)Oc2ccc(S(=O)(=O)c3ccc(C#N)cc3)cc2C(O)C1Br (stereo not drawn) |
| 219 to 221 | N#CC(=Cc1ccc2[nH]ccc2c1)S(=O)(=O)c1ccc([N+](=O)[O-])cc1 |
| 46 | CCOC(=O)C(C)c1ccc2nc(-c3ccccc3)oc2c1 (stereo not drawn) |
| 215 to 218 | COC(=O)COc1ccc(C(=O)NC(=O)Nc2ccc(C(N)=S)cc2)cc1 |
| 104 to 107 | O=C1C(=O)c2ccccc2C2=C1SCC1(CCN(Cc3ccc(F)cc3F)CC1)O2 |
| 198 | O=c1c2ccccc2[nH]c(=S)n1CCN1CCC(Nc2nc3ccccc3n2Cc2ccc(F)cc2)CC1 |
| 233 to 238 | Cc1c(C)c(N2Cc3cc(Cl)c(Cl)cc3C2)c(C)c2c1OC(C)(C)C2c1ccc(F)cc1 (stereo not drawn) |
| 149 to 150 | COc1ccc(Br)cc1-c1cc(-c2cccc(Br)c2)on1 |
| 171 to 173 | C=CCn1c(C(F)(F)F)nc2ccc(-n3c(=O)cc(C(F)(F)F)n(C)c3=O)cc21 |
| 284 to 285 | CCCc1nc2cc3c(cc2[nH]1)NC(=O)C3(C)C |
| 57.5 to 58.8 | CC(=O)c1ccc(C(=O)OC(C)(C)C)cc1 |
| 105 to 106 | C#CCNC(=O)N1CC(Oc2cccc(C(F)(F)F)c2)C1 |
| 176 to 178 | COc1cn(-c2cccc(C(F)(F)F)c2)nc(C(=O)C=CN(C)C)c1=O |
| 195 to 196 | NC(=O)CC1Nc2cccc3cccc(c23)S1(=O)=O (stereo not drawn) |
| 252 to 253 | Cc1c(Cc2ccccc2)c(=O)n(Cc2ccccc2)c2cc(OCC(N)=O)cc(OCC(N)=O)c12 |
